One assay has as its system MCD diet-induced MASH. Kind of assay: MCD diet-induced MASH mice, long-term model. It is filed as in vivo, mouse. Particulars: oral, 4 weeks, DC646 10 mg/kg, GUDCA 50 mg/kg. On the procedure:
For the long-term MASH model, 8- to 10-week-old male C57BL/6 J mice were fed with an MCS diet or MCD diet for 2 weeks, before the MCD models were administered with vehicle or GUDCA (50 mg/kg), OCA (30 mg/kg), and DC646 (10 mg/kg) for 4 weeks. The serum, liver, and intestine were collected 2 h after the final dosing. Male Fxr^△IE mice (8–10 weeks old) were fed with a GAN diet for 20 weeks and administered with vehicle or DC646 (10 mg/kg) from the 12th week for 8 weeks. The serum, liver, and intestine were collected 2 h after the final dosing.
The intestine and liver were frozen in liquid nitrogen and stored at −80°C. RNA was extracted, and complementary DNA was synthesized from 1 μg total RNA. RT-qPCR was performed on a Bio-Rad CFX384 Touch detection system (Bio-Rad). The primer sequences for RT-qPCR are shown in Supplementary Table S5. RNA levels were analyzed by 2-^ΔΔCt, normalized to 18S ribosomal RNA and expressed as fold change relative to the control group.
Hepatic TG and TC, and plasma ALT and AST levels were measured using commercial kits from Nanjing Jiancheng Bioengineering Institute according to the manufacturer’s instructions. To measure hepatic TG contents, liver tissues (~10 mg) were homogenized in 100 μL 1% TritonX-100 and centrifuged at 3000 rpm for 10 min. Supernatants were collected, and 2 μL samples were incubated with 200 μL reaction buffer at 37°C for 10 min. Hepatic TG or TC levels were read at 510 or 500 nm using a microplate reader (Versamax, Molecular Devices) and normalized using the protein concentration. To measure plasma ALT and AST levels, reaction buffer 1 and reaction buffer 2 were mixed at a ratio of 1:1, before adding 2 μL plasma sample and 200 μL mixed reaction buffer in a 96-well plate. The data were acquired using the kinetic mode with an interval of 30 s and 31 total reads at 340 nm using a microplate reader (Versamax, Molecular Devices).
Tissue specimens were fixed in 10% formalin for 12–24 h before being dehydrated and paraffin-embedded. The sections were stained with H&E. The NAS was calculated as a summary score including individual components of steatosis (0–3), lobular inflammation (0–3), and hepatocyte ballooning (0–2) for each liver section by a blinded liver pathologist, and the results were reviewed by a blinded hepatologist according to a previous protocol. To visualize liver fibrosis, paraffin-embedded tissue samples were stained with Sirius Red to characterize the collagen deposition. To visualize lipid accumulation and inflammation in the liver, frozen liver sections were stained with Oil Red O and F4/80, and images were acquired using a Leica DM6B laser microdissection system. At least three discontinuous liver sections were evaluated for each mouse.

Assay [1] has as its target T1, human FXR alpha (hFXRα)-LBD / SRC2-3 peptide (Homo sapiens, UniProt Q96RI1).
T1 construct: 100 nmol/L 6*His-hFXRα-LBD and 100 nmol/L biotinylated co-factor peptide
T1 sequence (Q96RI1 262-486 limits assumed): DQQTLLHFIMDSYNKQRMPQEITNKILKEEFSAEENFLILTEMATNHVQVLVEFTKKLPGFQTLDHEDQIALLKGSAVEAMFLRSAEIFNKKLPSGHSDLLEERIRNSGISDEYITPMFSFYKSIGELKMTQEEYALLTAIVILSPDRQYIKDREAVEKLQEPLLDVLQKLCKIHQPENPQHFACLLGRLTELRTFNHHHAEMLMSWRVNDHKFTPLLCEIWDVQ
Kind of assay: AlphaScreen assay, recruitment of coactivator peptide SRC2-3 to His-hFXRα-LBD. It is filed as biochemical. On the procedure: (§1) An AlphaScreen technology-based assay was performed according to the manufacturer’s instructions with a minor revision. Briefly, the experiment was conducted with compounds at the indicated concentrations, 100 nmol/L 6*His-hFXRα-LBD and 100 nmol/L biotinylated co-factor peptide in the buffer containing 50 mmol/L MOPS, 50 μmol/L CHAPS, 50 mmol/L NaF, and 0.1 mg/mL BSA, pH 7.4. The mixture was incubated with 50 μg/mL nickel acceptor beads and 50 μg/mL streptavidin donor beads in a 384-well plate under green light in the dark at room temperature, before conducting fluorescence measurement with excitation at 680 nm and emission at 550 nm on an Envision microplate analyzer (PE 2102-8340, PerkinElmer Life Sciences).
In general terms: Alpha assays give light when donor and acceptor beads are brought close together.

In assay [2] the target is T2, human FXR alpha (hFXRα)-LBD / NcoR2 peptide (Homo sapiens, UniProt Q96RI1).
T2 construct: 100 nmol/L 6*His-hFXRα-LBD and 100 nmol/L biotinylated co-factor peptide
T2 sequence (Q96RI1 262-486 limits assumed): T1 sequence (Q96RI1 262-486 limits assumed)
Briefly: AlphaScreen assay, recruitment of corepressor peptide NcoR2 to His-hFXRα-LBD. It is filed as biochemical. The following applies: compound alone incubated with His-hFXRα-LBD; read-out: EC50 in recruiting the NcoR2 peptide. The procedure:
as §1

pEC50: −log10 of the molar value.

By pEC50 is commonly meant the negative decadic logarithm of the EC50, by convention in mol/L.

In the case of `C[C@H](CCC(=O)NCC(=O)O)[C@H]1CC[C@H]2[C@@H]3[C@@H](O)C[C@@H]4C[C@H](O)CC[C@]4(C)[C@H]3CC[C@]12C` [GUDCA, glycoursodeoxycholic acid, reference compound], the “Hepatic mRNA levels of inflammation-related genes” value in the assay on MCD diet-induced MASH is “significantly decreased”. Also, in the assay on MCD diet-induced MASH (OCA 30 mg/kg), the “Hepatic mRNA levels of lipid metabolism-related genes / hepatic lipid accumulation” value is given as “only had minor effect”.
As for `CC[C@H]1[C@@H](O)[C@@H]2[C@H](CC[C@]3(C)[C@@H]([C@H](C)CCC(=O)O)CC[C@@H]23)[C@@]2(C)CC[C@@H](O)C[C@@H]12` [OCA, reference compound], in the assay on MCD diet-induced MASH (OCA 30 mg/kg), the “Hepatic mRNA levels of lipid metabolism-related genes / hepatic lipid accumulation” value is recorded as “markedly downregulated” and the “Serum alanine aminotransferase (ALT) level” value is “cannot improve”.
Take Ivermectin [reference compound]: the pEC50 is 6.02 in assay [1] (compound alone incubated with His-hFXRα-LBD, read-out: EC50 in recruiting the SRC2-3 peptide) and 5.66 in assay [2].
Take “N,N'-((1^2S,1^4R,14^2S,14^4R,4S,17S)-5,13,18,26-tetraoxo-2^1,15^1-bis(triisopropylsilyl)-2^1H,15^1H-6,19-dioxa-12,25-diaza-1(4,2),14(2,4)-dimorpholina-2,15(4,3)-diindolacyclohexacosaphane-4,17-diyl)bis(1,1,1-trifluoromethanesulfonamide) [DC644]”: in assay [1] (DC644 at 10 μmol/L compared with GUDCA and GlyMCA at 50 μmol/L), the “Inhibition of SRC2-3 recruitment in the presence of CDCA (library screen)” value is reported as “more potent”.

For the origin of these results see article PMC11992618, “Development of cyclopeptide inhibitors specifically disrupting FXR–coactivator interaction in the intestine as a novel therapeutic strategy for MASH” (Life Metabolism, 2025).
